PubChem BioAssay (NCI)
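All cell lines were grown in 96-well plates and treated with compound for 48 hours. TGI marks complete inhibition of growth.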

Experiments:
Assay in all cases: NCI anticancer screen, dose series, 48 h
786-0 renal = tested on: 786-0 renal
A498 renal = tested on: A498 renal
A549 NSCLC = tested on: A549 NSCLC
ACHN renal = tested on: ACHN renal
BT-549 breast = tested on: BT-549 breast
CAKI-1 renal = tested on: CAKI-1 renal
COLO 205 colon = tested on: COLO 205 colon
DMS 273 small cell lung = tested on: DMS 273 small cell lung
DU-145 prostate = tested on: DU-145 prostate
EKVX NSCLC = tested on: EKVX NSCLC
HCC-2998 colon = tested on: HCC-2998 colon
HCT-116 colon = tested on: HCT-116 colon
HCT-15 colon = tested on: HCT-15 colon
HL-60(TB) leukemia = tested on: HL-60(TB) leukemia
HOP-18 NSCLC = tested on: HOP-18 NSCLC
HOP-62 NSCLC = tested on: HOP-62 NSCLC
HOP-92 NSCLC = tested on: HOP-92 NSCLC
HS 578T breast = tested on: HS 578T breast
HT29 colon = tested on: HT29 colon
IGROV1 ovarian = tested on: IGROV1 ovarian
KM12 colon = tested on: KM12 colon
KM20L2 colon = tested on: KM20L2 colon
LOX IMVI melanoma = tested on: LOX IMVI melanoma
LXFL 529 NSCLC = tested on: LXFL 529 NSCLC
M14 melanoma = tested on: M14 melanoma
M19-MEL melanoma = tested on: M19-MEL melanoma
MALME-3M melanoma = tested on: MALME-3M melanoma
MCF7 breast = tested on: MCF7 breast
MDA-MB-231 breast = tested on: MDA-MB-231 breast
MDA-MB-435 = tested on: MDA-MB-435
MOLT-4 leukemia = tested on: MOLT-4 leukemia
NCI-H226 lung = tested on: NCI-H226 lung
NCI-H460 lung = tested on: NCI-H460 lung
NCI-H522 lung = tested on: NCI-H522 lung
OVCAR-3 ovarian = tested on: OVCAR-3 ovarian
OVCAR-4 ovarian = tested on: OVCAR-4 ovarian
OVCAR-5 ovarian = tested on: OVCAR-5 ovarian
OVCAR-8 ovarian = tested on: OVCAR-8 ovarian
PC-3 prostate = tested on: PC-3 prostate
RPMI-8226 leukemia = tested on: RPMI-8226 leukemia
RXF 393 renal = tested on: RXF 393 renal
SF-268 CNS = tested on: SF-268 CNS
SF-295 CNS = tested on: SF-295 CNS
SF-539 CNS = tested on: SF-539 CNS
SK-MEL-2 melanoma = tested on: SK-MEL-2 melanoma
SK-MEL-28 melanoma = tested on: SK-MEL-28 melanoma
SK-MEL-5 melanoma = tested on: SK-MEL-5 melanoma
SK-OV-3 ovarian = tested on: SK-OV-3 ovarian
SN12C renal = tested on: SN12C renal
SNB-19 CNS = tested on: SNB-19 CNS
SNB-75 CNS = tested on: SNB-75 CNS
SNB-78 CNS = tested on: SNB-78 CNS
SR leukemia = tested on: SR leukemia
SW-620 colon = tested on: SW-620 colon
T-47D breast = tested on: T-47D breast
TK-10 renal = tested on: TK-10 renal
U251 CNS = tested on: U251 CNS
UACC-257 melanoma = tested on: UACC-257 melanoma
UACC-62 melanoma = tested on: UACC-62 melanoma
UO-31 renal = tested on: UO-31 renal
CCRF-CEM leukemia = tested on: CCRF-CEM leukemia
DLD-1 colon = tested on: DLD-1 colon
DMS 114 small cell lung = tested on: DMS 114 small cell lung
K-562 leukemia = tested on: K-562 leukemia
NCI-H23 lung = tested on: NCI-H23 lung

Cc1cc(=O)[nH]c(NN2C(Cl)C(=O)C2c2ccc(O)cc2)n1 (stereo unspecified)
TGI (786-0 renal): 18.2 µM | TGI (A498 renal): 21.5 µM | TGI (A549 NSCLC): 31.2 µM | TGI (ACHN renal): 22 µM | TGI (BT-549 breast): 27.1 µM | TGI (CAKI-1 renal): 20.4 µM | TGI (COLO 205 colon): 40.7 µM | TGI (DMS 273 small cell lung): 18.1 µM | TGI (DU-145 prostate): 22.8 µM | TGI (EKVX NSCLC): 18.3 µM | TGI (HCC-2998 colon): 23.3 µM | TGI (HCT-116 colon): 14.3 µM | TGI (HCT-15 colon): 15.4 µM | TGI (HL-60(TB) leukemia): 7.69 µM | TGI (HOP-18 NSCLC): 27.8 µM | TGI (HOP-62 NSCLC): 19 µM | TGI (HOP-92 NSCLC): 29.4 µM | TGI (HS 578T breast): 51.7 µM | TGI (HT29 colon): 35.1 µM | TGI (IGROV1 ovarian): 21.7 µM | TGI (KM12 colon): 25 µM | TGI (KM20L2 colon): 46.5 µM | TGI (LOX IMVI melanoma): 7.27 µM | TGI (LXFL 529 NSCLC): 22.2 µM | TGI (M14 melanoma): 24.6 µM | TGI (M19-MEL melanoma): 23.1 µM | TGI (MALME-3M melanoma): 30.7 µM | TGI (MCF7 breast): 27.4 µM | TGI (MDA-MB-231 breast): 30 µM | TGI (MDA-MB-435): 20.5 µM | TGI (MOLT-4 leukemia): > 79.2 µM | TGI (NCI-H226 lung): 32.6 µM | TGI (NCI-H460 lung): 18.1 µM | TGI (NCI-H522 lung): 32.8 µM | TGI (OVCAR-3 ovarian): 18.9 µM | TGI (OVCAR-4 ovarian): 19 µM | TGI (OVCAR-5 ovarian): 35.2 µM | TGI (OVCAR-8 ovarian): 28.6 µM | TGI (PC-3 prostate): 26.8 µM | TGI (RPMI-8226 leukemia): 5.59 µM | TGI (RXF 393 renal): 17.2 µM | TGI (SF-268 CNS): 32.3 µM | TGI (SF-295 CNS): 21.4 µM | TGI (SF-539 CNS): 24.3 µM | TGI (SK-MEL-2 melanoma): 29.5 µM | TGI (SK-MEL-28 melanoma): 24.1 µM | TGI (SK-MEL-5 melanoma): 21.5 µM | TGI (SK-OV-3 ovarian): 23.4 µM | TGI (SN12C renal): 23.5 µM | TGI (SNB-19 CNS): 23.2 µM | TGI (SNB-75 CNS): 7.92 µM | TGI (SNB-78 CNS): 24.2 µM | TGI (SR leukemia): > 25.6 µM | TGI (SW-620 colon): 28.9 µM | TGI (T-47D breast): 32.2 µM | TGI (TK-10 renal): 31.7 µM | TGI (U251 CNS): 18.4 µM | TGI (UACC-257 melanoma): 26.1 µM | TGI (UACC-62 melanoma): 18.7 µM | TGI (UO-31 renal): 22.4 µM

CN(C)c1ccc(/C=C(/C(=O)O)c2csc(-c3nc(/C(=C\c4ccc(N(C)C)cc4)C(=O)O)cs3)n2)cc1
TGI (786-0 renal): > 100 µM | TGI (A498 renal): > 100 µM | TGI (A549 NSCLC): > 100 µM | TGI (ACHN renal): > 100 µM | TGI (CAKI-1 renal): > 100 µM | TGI (CCRF-CEM leukemia): > 100 µM | TGI (COLO 205 colon): > 100 µM | TGI (DLD-1 colon): > 100 µM | TGI (DMS 114 small cell lung): > 100 µM | TGI (EKVX NSCLC): > 100 µM | TGI (HCC-2998 colon): > 100 µM | TGI (HCT-116 colon): > 100 µM | TGI (HCT-15 colon): > 100 µM | TGI (HL-60(TB) leukemia): > 100 µM | TGI (HOP-62 NSCLC): > 100 µM | TGI (HOP-92 NSCLC): > 100 µM | TGI (HT29 colon): > 100 µM | TGI (IGROV1 ovarian): > 100 µM | TGI (K-562 leukemia): > 100 µM | TGI (KM12 colon): > 100 µM | TGI (KM20L2 colon): > 100 µM | TGI (LOX IMVI melanoma): > 100 µM | TGI (LXFL 529 NSCLC): > 100 µM | TGI (M14 melanoma): > 100 µM | TGI (M19-MEL melanoma): > 100 µM | TGI (MALME-3M melanoma): > 100 µM | TGI (MOLT-4 leukemia): > 100 µM | TGI (NCI-H226 lung): > 100 µM | TGI (NCI-H23 lung): > 100 µM | TGI (NCI-H460 lung): > 100 µM | TGI (OVCAR-3 ovarian): > 100 µM | TGI (OVCAR-5 ovarian): > 100 µM | TGI (OVCAR-8 ovarian): > 100 µM | TGI (RPMI-8226 leukemia): > 100 µM | TGI (RXF 393 renal): > 100 µM | TGI (SF-268 CNS): > 100 µM | TGI (SF-295 CNS): > 100 µM | TGI (SF-539 CNS): > 100 µM | TGI (SK-MEL-2 melanoma): > 100 µM | TGI (SK-MEL-28 melanoma): > 100 µM | TGI (SK-MEL-5 melanoma): > 100 µM | TGI (SK-OV-3 ovarian): > 100 µM | TGI (SN12C renal): > 100 µM | TGI (SNB-75 CNS): > 100 µM | TGI (SNB-78 CNS): > 100 µM | TGI (SW-620 colon): > 100 µM | TGI (TK-10 renal): > 100 µM | TGI (U251 CNS): > 100 µM | TGI (UACC-257 melanoma): > 100 µM | TGI (UACC-62 melanoma): > 100 µM | TGI (UO-31 renal): > 100 µM
